These are literature values, as cited in patent US20240156991A1, “STABLE FORMULATIONS OF INDOCYANINE GREEN” (PROVEPHARM LIFE SOLUTIONS, priority 2021, published 2024).

Each structure is given as a SMILES string.

With `CC1(C)C(/C=C/C=C/C=C/C=C2\N(CCCCS(=O)(=O)O)c3ccc4ccccc4c3C2(C)C)=[N+](CCCCS(=O)(=O)O)c2ccc3ccccc3c21` [ICG, Indocyanine green], the “reduction of absorbance at spectral peak” value (after 10 hours of storage in water and direct light) was 10%. For the same compound, the fluorescence intensity lost (stored at 4° C. in the dark, three days) was 20%.
